Experimental data as given in PubChem BioAssay (NCI).
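Values below derive from 48-hour exposures of cells grown in 96-well plates, with endpoints linearly interpolated between the two concentrations bracketing the appropriate inhibition level. TGI marks complete inhibition of growth.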

How the values were obtained:
Experiment in all cases: NCI anticancer screen, dose series, 48 h
UO-31 renal = system: UO-31 renal
ACHN renal = system: ACHN renal
K-562 leukemia = system: K-562 leukemia
OVCAR-5 ovarian = system: OVCAR-5 ovarian
HOP-92 NSCLC = system: HOP-92 NSCLC
SNB-75 CNS = system: SNB-75 CNS
SN12C renal = system: SN12C renal
HCC-2998 colon = system: HCC-2998 colon
M19-MEL melanoma = system: M19-MEL melanoma
U251 CNS = system: U251 CNS
RPMI-8226 leukemia = system: RPMI-8226 leukemia
RXF 393 renal = system: RXF 393 renal
NCI-H23 lung = system: NCI-H23 lung
EKVX NSCLC = system: EKVX NSCLC
M14 melanoma = system: M14 melanoma
A549 NSCLC = system: A549 NSCLC
OVCAR-4 ovarian = system: OVCAR-4 ovarian
LXFL 529 NSCLC = system: LXFL 529 NSCLC
SK-OV-3 ovarian = system: SK-OV-3 ovarian
CAKI-1 renal = system: CAKI-1 renal
OVCAR-8 ovarian = system: OVCAR-8 ovarian
NCI-H226 lung = system: NCI-H226 lung
COLO 205 colon = system: COLO 205 colon
HT29 colon = system: HT29 colon
HOP-62 NSCLC = system: HOP-62 NSCLC
HCT-116 colon = system: HCT-116 colon
TK-10 renal = system: TK-10 renal
HOP-18 NSCLC = system: HOP-18 NSCLC
DMS 273 small cell lung = system: DMS 273 small cell lung
SW-620 colon = system: SW-620 colon
SK-MEL-5 melanoma = system: SK-MEL-5 melanoma
SR leukemia = system: SR leukemia
RXF-631 renal = system: RXF-631 renal
KM12 colon = system: KM12 colon
LOX IMVI melanoma = system: LOX IMVI melanoma
HCT-15 colon = system: HCT-15 colon
IGROV1 ovarian = system: IGROV1 ovarian
SK-MEL-2 melanoma = system: SK-MEL-2 melanoma
DLD-1 colon = system: DLD-1 colon
UACC-62 melanoma = system: UACC-62 melanoma
MOLT-4 leukemia = system: MOLT-4 leukemia
XF 498 CNS = system: XF 498 CNS
UACC-257 melanoma = system: UACC-257 melanoma
NCI-H460 lung = system: NCI-H460 lung
786-0 renal = system: 786-0 renal
NCI-H522 lung = system: NCI-H522 lung
SF-539 CNS = system: SF-539 CNS
CCRF-CEM leukemia = system: CCRF-CEM leukemia
HL-60(TB) leukemia = system: HL-60(TB) leukemia
SF-295 CNS = system: SF-295 CNS
KM20L2 colon = system: KM20L2 colon
OVCAR-3 ovarian = system: OVCAR-3 ovarian
SK-MEL-28 melanoma = system: SK-MEL-28 melanoma
MALME-3M melanoma = system: MALME-3M melanoma

**Q.** With `Clc1ccc2nc(CCSCCc3nc4ccc(Cl)cc4[nH]3)[nH]c2c1` as the compound, how does the TGI (UO-31 renal) read?
**A.** 24.7 µM

**Q.** What about the TGI (ACHN renal) of the same compound?
**A.** 11.4 µM

**Q.** And the TGI (K-562 leukemia)?
**A.** 38.3 µM

**Q.** What about the TGI (OVCAR-5 ovarian) of the same compound?
**A.** 25.2 µM

**Q.** What about the TGI (HOP-92 NSCLC) of the same compound?
**A.** 30.6 µM

**Q.** What about the TGI (SNB-75 CNS) of the same compound?
**A.** 34.5 µM

**Q.** And the TGI (SN12C renal)?
**A.** 30.3 µM

**Q.** What about the TGI (HCC-2998 colon) of the same compound?
**A.** 31.7 µM

**Q.** And the TGI (M19-MEL melanoma)?
**A.** 27.4 µM

**Q.** And the TGI (U251 CNS)?
**A.** 26.8 µM

**Q.** And the TGI (RPMI-8226 leukemia)?
**A.** 13.5 µM

**Q.** What about the TGI (RXF 393 renal) of the same compound?
**A.** 38.6 µM

**Q.** And the TGI (NCI-H23 lung)?
**A.** 31.3 µM

**Q.** And the TGI (EKVX NSCLC)?
**A.** 31.3 µM

**Q.** And the TGI (M14 melanoma)?
**A.** 26.5 µM

**Q.** And the TGI (A549 NSCLC)?
**A.** 24.9 µM

**Q.** And the TGI (OVCAR-4 ovarian)?
**A.** 28.5 µM

**Q.** And the TGI (LXFL 529 NSCLC)?
**A.** 19 µM

**Q.** What about the TGI (SK-OV-3 ovarian) of the same compound?
**A.** 34.2 µM

**Q.** And the TGI (CAKI-1 renal)?
**A.** 20.2 µM

**Q.** What about the TGI (OVCAR-8 ovarian) of the same compound?
**A.** 28 µM

**Q.** And the TGI (NCI-H226 lung)?
**A.** 41.8 µM

**Q.** And the TGI (COLO 205 colon)?
**A.** 29 µM

**Q.** And the TGI (HT29 colon)?
**A.** 24.1 µM

**Q.** And the TGI (HOP-62 NSCLC)?
**A.** 34.1 µM

**Q.** And the TGI (HCT-116 colon)?
**A.** 19.3 µM

**Q.** What about the TGI (TK-10 renal) of the same compound?
**A.** 22.1 µM

**Q.** What about the TGI (HOP-18 NSCLC) of the same compound?
**A.** 37 µM

**Q.** And the TGI (DMS 273 small cell lung)?
**A.** 29 µM

**Q.** And the TGI (SW-620 colon)?
**A.** 27 µM

**Q.** What about the TGI (SK-MEL-5 melanoma) of the same compound?
**A.** 18.4 µM

**Q.** What about the TGI (SR leukemia) of the same compound?
**A.** 1.14 µM

**Q.** And the TGI (RXF-631 renal)?
**A.** 21.6 µM

**Q.** And the TGI (KM12 colon)?
**A.** 29.7 µM

**Q.** And the TGI (LOX IMVI melanoma)?
**A.** 40.4 µM

**Q.** What about the TGI (HCT-15 colon) of the same compound?
**A.** 26.5 µM

**Q.** And the TGI (IGROV1 ovarian)?
**A.** 25.4 µM

**Q.** What about the TGI (SK-MEL-2 melanoma) of the same compound?
**A.** 28.8 µM

**Q.** And the TGI (DLD-1 colon)?
**A.** 33.8 µM

**Q.** And the TGI (UACC-62 melanoma)?
**A.** 19.2 µM

**Q.** What about the TGI (MOLT-4 leukemia) of the same compound?
**A.** 18.1 µM

**Q.** What about the TGI (XF 498 CNS) of the same compound?
**A.** 27.5 µM

**Q.** What about the TGI (UACC-257 melanoma) of the same compound?
**A.** 26.3 µM

**Q.** What about the TGI (NCI-H460 lung) of the same compound?
**A.** 31.7 µM

**Q.** What about the TGI (786-0 renal) of the same compound?
**A.** 26.3 µM

**Q.** What about the TGI (NCI-H522 lung) of the same compound?
**A.** 26.5 µM

**Q.** And the TGI (SF-539 CNS)?
**A.** 32.7 µM

**Q.** What about the TGI (CCRF-CEM leukemia) of the same compound?
**A.** 41.6 µM

**Q.** What about the TGI (HL-60(TB) leukemia) of the same compound?
**A.** 8.09 µM

**Q.** What about the TGI (SF-295 CNS) of the same compound?
**A.** 20.2 µM

**Q.** For `CCCCCCCCCCCCNC1(C)CNCCCNCCNCCCNC1`, which TGI (UO-31 renal) is on record?
**A.** 5.83 µM

**Q.** And the TGI (ACHN renal)?
**A.** 3.41 µM

**Q.** And the TGI (OVCAR-5 ovarian)?
**A.** 4.54 µM

**Q.** And the TGI (HOP-92 NSCLC)?
**A.** 4.55 µM

**Q.** What about the TGI (SNB-75 CNS) of the same compound?
**A.** 3.15 µM

**Q.** What about the TGI (SN12C renal) of the same compound?
**A.** 3.05 µM

**Q.** What about the TGI (KM20L2 colon) of the same compound?
**A.** 3.1 µM

**Q.** What about the TGI (HCC-2998 colon) of the same compound?
**A.** 3.22 µM

**Q.** What about the TGI (M19-MEL melanoma) of the same compound?
**A.** 3.13 µM

**Q.** And the TGI (U251 CNS)?
**A.** 2.3 µM

**Q.** What about the TGI (RPMI-8226 leukemia) of the same compound?
**A.** 3.55 µM

**Q.** And the TGI (RXF 393 renal)?
**A.** 2.93 µM

**Q.** And the TGI (NCI-H23 lung)?
**A.** 3.12 µM

**Q.** What about the TGI (EKVX NSCLC) of the same compound?
**A.** 12.8 µM

**Q.** What about the TGI (M14 melanoma) of the same compound?
**A.** 3.21 µM

**Q.** What about the TGI (A549 NSCLC) of the same compound?
**A.** 3.2 µM

**Q.** And the TGI (OVCAR-4 ovarian)?
**A.** 3.82 µM

**Q.** And the TGI (LXFL 529 NSCLC)?
**A.** 3.05 µM

**Q.** And the TGI (SK-OV-3 ovarian)?
**A.** 3.21 µM

**Q.** And the TGI (CAKI-1 renal)?
**A.** 3.63 µM

**Q.** What about the TGI (OVCAR-8 ovarian) of the same compound?
**A.** 2.92 µM

**Q.** And the TGI (NCI-H226 lung)?
**A.** 3.21 µM

**Q.** What about the TGI (COLO 205 colon) of the same compound?
**A.** 3.2 µM

**Q.** And the TGI (HT29 colon)?
**A.** 2.95 µM

**Q.** What about the TGI (HOP-62 NSCLC) of the same compound?
**A.** 3.83 µM

**Q.** What about the TGI (HCT-116 colon) of the same compound?
**A.** 2.59 µM

**Q.** And the TGI (OVCAR-3 ovarian)?
**A.** 3.28 µM

**Q.** What about the TGI (TK-10 renal) of the same compound?
**A.** 3.1 µM

**Q.** What about the TGI (HOP-18 NSCLC) of the same compound?
**A.** 3.07 µM

**Q.** What about the TGI (DMS 273 small cell lung) of the same compound?
**A.** 1.6 µM

**Q.** And the TGI (SW-620 colon)?
**A.** 3.27 µM

**Q.** And the TGI (SK-MEL-5 melanoma)?
**A.** 3.06 µM

**Q.** What about the TGI (SR leukemia) of the same compound?
**A.** 3.58 µM

**Q.** And the TGI (SK-MEL-28 melanoma)?
**A.** 3.29 µM

**Q.** What about the TGI (RXF-631 renal) of the same compound?
**A.** 3.57 µM

**Q.** And the TGI (MALME-3M melanoma)?
**A.** 3.47 µM

**Q.** And the TGI (KM12 colon)?
**A.** 2.89 µM

**Q.** What about the TGI (LOX IMVI melanoma) of the same compound?
**A.** 3.25 µM

**Q.** What about the TGI (IGROV1 ovarian) of the same compound?
**A.** 2.35 µM

**Q.** And the TGI (SK-MEL-2 melanoma)?
**A.** 3.34 µM

**Q.** What about the TGI (DLD-1 colon) of the same compound?
**A.** 3.07 µM

**Q.** And the TGI (UACC-62 melanoma)?
**A.** 3.25 µM

**Q.** And the TGI (MOLT-4 leukemia)?
**A.** 3.05 µM

**Q.** And the TGI (XF 498 CNS)?
**A.** 3.35 µM

**Q.** What about the TGI (UACC-257 melanoma) of the same compound?
**A.** 3.19 µM

**Q.** And the TGI (NCI-H460 lung)?
**A.** 2.69 µM

**Q.** What about the TGI (786-0 renal) of the same compound?
**A.** 3.14 µM

**Q.** What about the TGI (NCI-H522 lung) of the same compound?
**A.** 3.22 µM

**Q.** What about the TGI (SF-539 CNS) of the same compound?
**A.** 3.29 µM

**Q.** And the TGI (SF-295 CNS)?
**A.** 2.88 µM
